Assay results as given in patent publication US20120022294A1, “Axomadol or a Metabolite Thereof for Use in the Treatment of Irritable Bowel Syndrome” (priority 2010, published 2012).
Where a name gives a salt, the structure may show the parent alone. Read-outs that look alike come from different tables or passages of the source.

Experiments:
[1] = test system: isolated guinea pig ileum; assay: twitch contractions (electrically induced) of the isolated guinea pig ileum; details: for IC50: Cavia porcellus; for threshold of reduction of electrically induced contractions: concentration-dependent; for % reversal by naloxone: naloxone 10^−6 M added after last application of test compound; for inhibitory effect reversed after addition of naloxone: opioid receptor antagonist naloxone 1 μM; for maximal reduction: twitch reaction remaining as % of pre-value at highest concentration
Experimental: It was investigated whether axomadol and (+)-O-demethyl axomadol are able to modulate gastrointestinal motility.
Male guinea pigs (PBW, Charles River, Kiβlegg, FRG) weighing 250-350 g were used for the study. The animals were kept under standard housing conditions: light/dark rhythm (06.00-18.00 h light, 18.00-6.00 h dark); room temperature 22±2° C., relative air humidity 55±5%; 15 air changes per hour, air movement <0.2 m/sec. The animals were given water and an exclusive diet of “Herilan RM 204” (Eggersmann Company, Rinteln/FRG) ad libitum. Before experimental preparation they were kept in groups of up to 5 animals in type IV Makrolon cages (Ebeco Company, Castrop-Rauxel, FRG). There were at least 4 days between delivery and testing.
Axomadol hydrochloride and (+)-O-demethyl axomadol hydrochloride were dissolved in aqua bidest. Final concentrations in the organ bath ranged from 10^−7 to 3.2·10^−4 M and from 10^−8 to 3.2·10^−5 M for axomadol hydrochloride and (+)-O-demethyl axomadol hydrochloride respectively (cumulative drug application). Naloxone (10^−6 M) was used as opioid antagonist.
A four-compartment organ bath (Dept. Biotechnology, Grunenthal GmbH) consisting of 20 ml acrylic glass compartments, organ supports and force transducers (F10 force transducers, Type 375, HSE, FRG) was used for the measurement of isometric contractions. The organ bath was filled and emptied by means of a semi-automatic dosing arrangement. All experiments were performed at […]. The nutrient solution was gassed with carbogen (95% O2/5% CO2)) both in the nutrient storage chamber and in the organ bath starting 30 min before the beginning and throughout the experiment.
The nutrient solution had the following composition:
Parameter: contraction force [g]
Guinea pigs were killed in CO2-atmosphere and the ileum was dissected free from adhering tissue, removed and suspended in the organ bath. After an incubation period of at least 30 min, isometric contractions (twitch reactions) were elicited by transmural stimulation pulses (duration 1 ms, amplitude 180 mA at 0.03 Hz; stimulator A310, WPI, FRG). A pre-tension of 1 g was applied to the preparations and constantly readjusted during the equilibration period (at least 30 minutes) while the nutrient was changed twice.
After having registered the pre-value, test compounds were added to the organ bath in cumulative concentration steps as indicated. The exposure time for each concentration was 6 minutes. After the last application of the test compound, the opioid-antagonist naloxone (10^−6 M) was added without previous wash out of the test compound.
1.5 Evaluation Data was calculated as the mean electrically stimulated contraction force during a period of 4 to 6 minutes after compound application and expressed as percentage of the pre-value. The mean contraction force during a period of 2 minutes before compound application was taken as pre-value. All results were expressed as means±s.e.m. of ≧4 single experiments. For determination of IC50 values, regression lines (y=f log x) were constructed and IC50 values with s.e.m. were calculated using a computer-assisted regression analysis program (Grünenthal GmbH). The reversal of the test compound's activity by the antagonist was determined according to the following equation:
with max. effect being: 100%−% reduction of pre-value of twitch reaction at highest dose of test compound.

[2] = test system: visceral hyperalgesia induced by rectal administration of mustard oil in mice; assay: visceral hyperalgesia / mustard oil colitis in mice; format: in vivo
Excerpt: The effects of axomadol hydrochloride on visceral hyperalgesia were studied, which was induced by rectal administration of mustard oil in mice (according to Laird J M, Martinez-Caro L, Garcia-Nicas E, Cervero F. (2001) A new model of visceral pain and referred hyperalgesia in the mouse. Pain 92: 335-42). The typical visceral pain behaviour was quantified in three parameters: During the first minutes after mustard oil administration spontaneous visceral pain behaviour occurs. Following this period of spontaneous pain, referred allodynia and hyperalgesia can be quantified by means of von Frey filaments of different strength stimulating the abdomen of the mice.
Male NMRI mice (28-38 g body weight) from a commercial breeder (Iffa Credo, France) were used. The animals were housed under standardized conditions: light/dark cycle (06.00-18.00 h light, 18.00-06.00 h dark), room temperature 20-24° C., relative air humidity 35-70%, 15 air changes per hour, air movement <0.2 m/sec, tap water and standard diet ad libitum, macrolon type 4 cages with maximally 30 animals per cage. There were at least 5 days between delivery and start of the experiment.
Axomadol hydrochloride was dissolved in vehicle solution and injected intra-venously.
Doses: 0.464; 1.0; 2.15; 4.64; 10.0 mg/kg i.v. Administration volume: 10 ml/kg Vehicle solution: 0.9% NaCl solution (Fresenius, Bad Homburg, FRG) Mustard oil was dissolved in vehicle solution and administered intra-rectally Dose: 50 μl of a 3.5 Vol.−% solution per animal Vehicle solution: PEG 200
2.3.1 Induction of Colitis Animals were habituated to the test conditions for 20-30 min and stimulated with von Frey filaments onto the abdominal wall. 10 stimulations with von Frey filaments of 1, 4, 8, 16, and 32 mN were applied in ascending order (i.e. 10×1 mN, 10×4 mN, etc.). Animals with more than 25 positive reactions during this phase were excluded. Vaseline was applied in the perianal area to avoid the stimulation of somatic areas with the irritant chemical. Colitis is induced by rectal administration of 50 μl mustard oil (3.5%). Control animals are treated with vehicle (50 μl PEG200).
Axomadol hydrochloride or vehicle was given intravenously (i.v.) 5 min before mustard oil. Seven animals were tested per group. The following parameters were counted:
2-12 min after mustard oil: • 1. Spontaneous pain score: counting and scoring of visceral pain behaviours (Score 1-2, 1=licking of abdominal wall, 2=stretching, squashing, mounting, backward-movement or contraction of the flank muscles). 20-40 min after mustard oil • 2. […]
Data were analysed by means of two-factor analysis of variance (ANOVA) with repeated measures. Significance of treatment-, time- or treatment x time interaction effects was analyzed by means of Wilks' Lambda statistics. […]

[3] = isolated guinea pig ileum, mean ± s.e.m., read-out: IC50 value, reduction of electrically induced contractions
[4] = twitch contractions of the guinea pig ileum, cumulative application, read-out: IC50

| Compound | IC50 [1, 3] | IC50 [1, 4] | twitch reactions, reduction to % of pre-value ([1]; increasing concentrations up to 320 μM) | threshold of reduction of electrically induced contractions ([1]; isolated guinea pig ileum) | % reversal by naloxone [1] | inhibitory effect reversed after addition of naloxone [1] | maximal reduction [1] | inhibition of all three visceral pain parameters ([2]; 0.464, 1.0, 2.15, 4.64 and 10.0 mg/kg i.v.) | ED50 (95% confidence intervals), referred allodynia ([2]; i.v. 5 min before mustard oil, 1 mN von Frey filament, 20-40 min after mustard oil) | ED50 (95% confidence intervals), spontaneous visceral pain behaviour ([2]; i.v. 5 min before mustard oil, 2-12 min after mustard oil) | ED50 (95% confidence intervals), referred hyperalgesia ([2]; i.v. 5 min before mustard oil, 16 mN von Frey filament, 20-40 min after mustard oil) | twitch reactions, reduction to % of pre-value ([1]; increasing concentrations up to 32 μM) |
| --- | --- | --- | --- | --- | --- | --- | --- | --- | --- | --- | --- | --- |
| COc1cccc([C@@]2(O)C[C@H](O)CC[C@@H]2CN(C)C)c1 (racemic) [axomadol hydrochloride, (1RS,3RS,6RS)-6-dimethylaminomethyl-1-(3-methoxyphenyl)-cyclohexane-1,3-diol] | 39.2 ± 2.8 µM | 39.2 ± 2.8 µM | 32.1 % of pre-value | around 10 μM | 83.4% | 83.4% | 32.1 % pre-value | dose dependent and significant inhibition | 6.13 (5.56-6.60-4.75) mg/kg i.v. | 2.62 (1.79-4.05) mg/kg i.v. | 2.72 (1.58-5.46) mg/kg i.v. | – |
| CN(C)CC1CCC(O)CC1(O)c1cccc(O)c1 (single isomer, unassigned; (+)) [(+)-O-demethyl axomadol hydrochloride, 6-dimethylaminomethyl-1-(3-hydroxyphenyl)-cyclohexane-1,3-diol] | 0.43 ± 0.09 µM | 0.43 ± 0.09 µM | – | around 0.032 μM | 69.1% | 69.1% | 16.6 % pre-value | – | – | – | – | 16.6±3 % of pre-value |
